By Kd is commonly meant the free concentration of one partner at which half of the binding sites on the other are occupied at equilibrium, for simple one-to-one binding. A high value points to a looser complex.

Kd data for one compound are collected here from BindingDB's records for doi:10.1021/jm030121k (Boehringer Ingelheim Pharmaceuticals, 2003).

The target of the assay is Mitogen-activated protein kinase 14 (Mus musculus, UniProt P47811). As to the kind of experiment: UV-Thermal Melt. As for the experimental part:
UV thermal melt experiments were carried out in a quartz cuvette loaded with sample containing enzyme and each test compound using a spectrophotometer. For each measurement, absorbance data at 230 nm was collected as the temperature was scanned from 25 to 80 C at a ramp rate of 0.2 C /min. The melting temperature (Tm) for each sample was calculated as the maximum deflection point of the first derivative of the melting transition.

Chain of Mitogen-activated protein kinase 14 (P47811 whole entry): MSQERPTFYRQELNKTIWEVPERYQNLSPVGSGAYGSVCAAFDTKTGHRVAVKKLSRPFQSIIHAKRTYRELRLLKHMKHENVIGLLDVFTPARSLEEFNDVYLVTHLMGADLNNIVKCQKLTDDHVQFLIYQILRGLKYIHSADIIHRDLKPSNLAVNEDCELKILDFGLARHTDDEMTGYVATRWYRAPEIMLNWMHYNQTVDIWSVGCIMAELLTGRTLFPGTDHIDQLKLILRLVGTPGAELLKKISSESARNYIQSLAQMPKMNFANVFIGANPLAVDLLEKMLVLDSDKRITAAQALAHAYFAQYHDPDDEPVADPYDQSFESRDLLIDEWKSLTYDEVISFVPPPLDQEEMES

For the compound `Cc1ccc(-n2nc(C(C)(C)C)cc2NC(=O)Nc2cccc3ccccc23)cc1` [BIRB-796 Analog 4], the Kd is 11 nM.
